In paper PMC11012124, “Synthesis of Novel Triazine-Based Chalcones and 8,9-dihydro-7H-pyrimido[4,5-b][1,4]diazepines as Potential Leads in the Search of Anticancer, Antibacterial and Antifungal Agents” (International Journal of Molecular Sciences, 2024):
Values after ≈ are worked out from the molar mass of the structure shown.

Experiments:
[1] = test system: MCF7; experiment: cells; details: Homo sapiens, MCF7, 48 h; for CC50: read-out: LC50
[2] = test system: MDA-MB-468; experiment: cells; details: Homo sapiens, MDA-MB-468, 48 h; for CC50: read-out: LC50
[3] = test system: SNB-19; experiment: cells; details: Homo sapiens, SNB-19, 48 h; for CC50: read-out: LC50
[4] = test system: NCI-H522; experiment: cells; details: Homo sapiens, NCI-H522, 48 h; for CC50: read-out: LC50
[5] = test system: SNB-75; experiment: cells; details: Homo sapiens, SNB-75, 48 h; for CC50: read-out: LC50
[6] = test system: UACC-257; experiment: cells; details: Homo sapiens, UACC-257, 48 h; for CC50: read-out: LC50
[7] = test system: NCI/ADR-RES; experiment: cells; details: Homo sapiens, 48 h; for CC50: read-out: LC50
[8] = test system: HS 578T; experiment: cells; details: Homo sapiens, 48 h; for CC50: read-out: LC50
[9] = test system: DU-145; experiment: cells; details: Homo sapiens, DU-145, 48 h; for CC50: read-out: LC50
[10] = test system: NCI-H226; experiment: cells; details: Homo sapiens, NCI-H226, 48 h; for CC50: read-out: LC50
[11] = test system: RPMI-8226; experiment: cells; details: Homo sapiens, RPMI-8226, 48 h; for CC50: read-out: LC50
[12] = test system: HL-60(TB); experiment: cells; details: Homo sapiens, HL-60, 48 h; for CC50: read-out: LC50
[13] = test system: MDA-MB-435; experiment: cells; details: Homo sapiens, MDA-MB-435, 48 h; for CC50: read-out: LC50
[14] = test system: SN12C; experiment: cells; details: Homo sapiens, 48 h; for CC50: read-out: LC50
[15] = test system: OVCAR-8; experiment: cells; details: Homo sapiens, OVCAR-8, 48 h; for CC50: read-out: LC50
[16] = test system: 60 cancer cell lines; experiment: NCI-60 one-dose screen (10 μM); type: cell-based; details: Homo sapiens; one dose of 10 μM, mean over 60 cancer cell lines; read-out: Mean Growth Percent (MGP)
From the text: Additionally, the mean of the growth percentages (MGP) of each compound against all the 60 cancer cell lines is also reported, which is used as one of the selection criteria to continue with tests at five concentration doses.

[17] = test system: OVCAR-4; experiment: cells; details: Homo sapiens, OVCAR-4, 48 h; for CC50: read-out: LC50
[18] = test system: UACC-62; experiment: cells; details: Homo sapiens, UACC-62, 48 h; for CC50: read-out: LC50
[19] = test system: NCI-H322M; experiment: cells; details: Homo sapiens, 48 h; for CC50: read-out: LC50
[20] = test system: M14; experiment: cells; details: Homo sapiens, M14, 48 h; for CC50: read-out: LC50
[21] = test system: SF-539; experiment: cells; details: Homo sapiens, SF-539, 48 h; for CC50: read-out: LC50, SF-539, 48 h
[22] = test system: TK-10; experiment: cells; details: Homo sapiens, TK-10, 48 h; for CC50: read-out: LC50
[23] = test system: SR; experiment: cells; details: Homo sapiens, 48 h; for CC50: read-out: LC50
[24] = test system: N. gonorrhoeae ATCC 49226; experiment: MIC on GC agar plates; type: cell-based, Neisseria gonorrhoeae; details: Neisseria gonorrhoeae, ATCC49226, read-out: MIC
Experimental: An initial screening for bacterial inhibition was performed by the agar diffusion method. […] DMSO and TSB were included as negative controls. Gentamicin and trimethoprim sulfamethoxazole were included as a positive control for growth inhibition. Derivatives showing growth inhibition were tested at least twice before being selected for the microdilution test. For N. gonorrhoeae, the agar diffusion method was also used for screening with some modifications. […] Penicillin and tetracycline were used as controls. […] Briefly, GC agar supplemented with 1% isovitalex was prepared with increasing concentrations of the new compounds and inoculated with 10 µL of a bacterial suspension (1 × 10^4 CFU). The lowest concentration of the compound that inhibited bacterial growth was determined as the MIC. Bacterial growth was examined and verified using the oxidase test. The experiments were performed in duplicate in at least two independent assays.

[25] = test system: BT-549; experiment: cells; details: Homo sapiens, BT-549, 48 h; for CC50: read-out: LC50

With `Nc1nc(N)c2c(n1)NC(c1ccccc1)CC(c1ccc(Nc3nc(NCCO)nc(Nc4ccc(Cl)cc4)n3)cc1)=N2` (stereo not drawn) [33a] the GI50 [1] was 1510 nM, the CC50 [1] was 6.1 µM and the GI50 [2] was 1510 nM. The CC50 [2] was 5.93 µM, the GI50 [3] was 1580 nM and the CC50 [3] was 5.64 µM. The GI50 [4] was 1790 nM, the CC50 [4] was 6.77 µM and the GI50 [5] was 1560 nM. It also gave a CC50 [5] of 6.29 µM, a GI50 [6] of 1900 nM and a CC50 [6] of 6.43 µM. The GI50 [7] was 4.33 µM, the CC50 [7] was greater than 100 µM and the GI50 [8] was 1980 nM. For the same compound, the CC50 [8] was greater than 100 µM, the GI50 [9] was 1800 nM and the CC50 [9] was 6.34 µM. For the same compound, the GI50 [10] was 11.5 µM, the CC50 [10] was 85 µM and the GI50 [11] was 1380 nM. For the same compound, the CC50 [11] was greater than 100 µM, the GI50 [12] was 320 nM and the CC50 [12] was greater than 100 µM. The GI50 [13] was 1740 nM, the CC50 [13] was 5.78 µM and the GI50 [14] was 1740 nM. It also gave a CC50 [14] of 7.2 µM, a GI50 [15] of 1460 nM and a CC50 [15] of 6.59 µM. It also gave an activity at 10 µM [16] of 25.3%, a GI50 [17] of 1720 nM and a CC50 [17] of 8.19 µM. The GI50 [18] was 1840 nM, the CC50 [18] was 6 µM and the GI50 [19] was 1630 nM. It also gave a CC50 [19] of 5.67 µM, a GI50 [20] of 1840 nM and a CC50 [20] of 6.1 µM. The GI50 [21] was 1600 nM, the CC50 [21] was 5.85 µM and the GI50 [22] was 2090 nM. For the same compound, the CC50 [22] was 7.16 µM, the GI50 [23] was 550 nM and the MIC [24] was 1 µg/mL (≈ 1.64 µM). It also gave a GI50 [25] of 1770 nM and a CC50 [25] of 5.81 µM.

`Cc1ccc(C2CC(c3ccc(Nc4nc(NCCO)nc(Nc5ccc(Cl)cc5)n4)cc3)=Nc3c(N)nc(N)nc3N2)cc1` (stereo not drawn) [33b] showed a GI50 [1] of 1460 nM, a CC50 [1] of 6.22 µM and a GI50 [2] of 1650 nM. It also gave a CC50 [2] of 6.09 µM, a GI50 [3] of 1570 nM and a CC50 [3] of 5.75 µM. For the same compound, the GI50 [4] was 1720 nM, the CC50 [4] was 7.03 µM and the GI50 [5] was 1620 nM. For the same compound, the CC50 [5] was 6.73 µM, the GI50 [6] was 1840 nM and the CC50 [6] was 6.54 µM. The GI50 [7] was 1.73 µM, the CC50 [7] was 6.97 µM and the GI50 [8] was 1790 nM. For the same compound, the CC50 [8] was greater than 100 µM, the GI50 [9] was 1760 nM and the CC50 [9] was 5.77 µM. It also gave a GI50 [10] of 16.7 µM, a CC50 [10] of 88.2 µM and a GI50 [11] of 1830 nM. The CC50 [11] was greater than 100 µM, the GI50 [12] was 1710 nM and the CC50 [12] was greater than 100 µM. The GI50 [13] was 1730 nM, the CC50 [13] was 5.68 µM and the GI50 [14] was 1790 nM. It also gave a CC50 [14] of 6.39 µM, a GI50 [15] of 1800 nM and a CC50 [15] of 7.55 µM. For the same compound, the activity at 10 µM [16] was -21.8%, the GI50 [17] was 1850 nM and the CC50 [17] was 7.14 µM. It also gave a GI50 [18] of 1820 nM, a CC50 [18] of 6.33 µM and a GI50 [19] of 1590 nM. For the same compound, the CC50 [19] was 5.42 µM, the GI50 [20] was 1840 nM and the CC50 [20] was 5.99 µM. For the same compound, the GI50 [21] was 1570 nM, the CC50 [21] was 5.63 µM and the GI50 [22] was 1900 nM. It also gave a CC50 [22] of 6.02 µM, a GI50 [23] of 1680 nM and a CC50 [23] greater than 100 µM. For the same compound, the MIC [24] was 0.5 µg/mL (≈ 0.802 µM), the GI50 [25] was 1730 nM and the CC50 [25] was 5.69 µM.

With `Nc1nc(N)c2c(n1)NC(c1ccc(F)cc1)CC(c1ccc(Nc3nc(NCCO)nc(Nc4ccc(Cl)cc4)n3)cc1)=N2` (stereo not drawn) [33f] the GI50 [1] was 956 nM, the CC50 [1] was 6 µM and the GI50 [2] was 1480 nM. The CC50 [2] was 6.7 µM, the GI50 [3] was 1760 nM and the GI50 [4] was 1430 nM. It also gave a CC50 [4] of 6.16 µM, a GI50 [5] of 3350 nM and a CC50 [5] of 45.4 µM. The GI50 [6] was 1850 nM, the CC50 [6] was 6.69 µM and the GI50 [7] was 7.73 µM. The CC50 [7] was greater than 100 µM, the GI50 [8] was 2040 nM and the CC50 [8] was greater than 100 µM. The GI50 [9] was 1750 nM, the CC50 [9] was 7 µM and the GI50 [10] was 2.49 µM. It also gave a CC50 [10] of 37.9 µM, a GI50 [11] of 1010 nM and a CC50 [11] greater than 100 µM. It also gave a GI50 [12] of 863 nM, a CC50 [12] greater than 100 µM and a GI50 [13] of 1700 nM. For the same compound, the CC50 [13] was 7.42 µM, the GI50 [14] was 2080 nM and the CC50 [14] was greater than 100 µM. For the same compound, the GI50 [15] was 1160 nM, the CC50 [15] was 6.81 µM and the activity at 10 µM [16] was -3.41%. It also gave a GI50 [17] of 1930 nM, a CC50 [17] greater than 100 µM and a GI50 [18] of 1960 nM. The GI50 [19] was 2430 nM, the CC50 [19] was 33.5 µM and the GI50 [20] was 1660 nM. It also gave a CC50 [20] of 6.58 µM, a GI50 [21] of 1560 nM and a CC50 [21] of 6.36 µM. For the same compound, the GI50 [22] was 4610 nM, the CC50 [22] was 45.5 µM and the GI50 [23] was 672 nM. It also gave a CC50 [23] greater than 100 µM, an MIC [24] of 1 µg/mL (≈ 1.59 µM) and a GI50 [25] of 1560 nM. The CC50 [25] was 6.47 µM.
